# Data reported in the supplement of paper PMC10307832.
# Columns and labels:
# Assay in all cases: relative viability (nuclei count vs DMSO), 5 days (fraction); higher = more cells survive
# [1] = compound: Cc1cnc(Nc2ccc(OCCN3CCCC3)cc2)nc1Nc1cccc(S(=O)(=O)NC(C)(C)C)c1 [Fedratinib] + COc1cccc2cc(-c3nc([C@H]4CC[C@H](C(=O)O)CC4)n4ncnc(N)c34)[nH]c12 [OSI-027] (partner 0.5 µM)
# Procedure, shortened: (§1)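 After 5 days of treatment, lung cancer cells in 1536-well plates were fixed and stained in a single step (final 0.05% Triton X-100, 1% formaldehyde, 1 ug/ml Hoechst) and their nuclei counted on 4× images. Treatment had been applied by pin tool the day after seeding as one drug alone or as a fixed anchor-drug dose with five library-drug doses (not always all listed) in √10 steps. Relative viability is the nuclei count of treated wells divided by that of vehicle wells, and values are medians of duplicate plates.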
# [2] = compound: COC1=CC=C(C=C1)COC2=C(C=C(C=C2)CC3=CN=C(N=C3N)N)OC [GW-2580] + Nc1nc2[nH]cc(CCc3ccc(C(=O)N[C@@H](CCC(=O)O)C(=O)O)cc3)c2c(=O)[nH]1 [Pemetrexed] (partner 0.2 µM)
# Procedure, shortened: as §1
# [3] = compound: Cc1cnc(Nc2ccc(OCCN3CCCC3)cc2)nc1Nc1cccc(S(=O)(=O)NC(C)(C)C)c1 [Fedratinib] + CC1(C)CCC(c2ccc(Cl)cc2)=C(CN2CCN(c3ccc(C(=O)NS(=O)(=O)c4ccc(N[C@H](CCN5CCOCC5)CSc5ccccc5)c(S(=O)(=O)C(F)(F)F)c4)cc3)CC2)C1 [Navitoclax] (partner 0.5 µM)
# Procedure, shortened: as §1
# [4] = compound: Cc1cnc(Nc2ccc(OCCN3CCCC3)cc2)nc1Nc1cccc(S(=O)(=O)NC(C)(C)C)c1 [Fedratinib] + Nc1ncn([C@H]2C[C@H](O)[C@@H](CO)O2)c(=O)n1 [Decitabine] (partner 2 µM)
# Procedure, shortened: as §1
# [5] = compound: Cc1cnc(Nc2ccc(OCCN3CCCC3)cc2)nc1Nc1cccc(S(=O)(=O)NC(C)(C)C)c1 [Fedratinib] + O=C(c1cc(Cc2n[nH]c(=O)c3ccccc23)ccc1F)N1CCN(C(=O)C2CC2)CC1 [Olaparib] (partner 8 µM)
# Procedure, shortened: as §1
# [6] = compound: Cc1cnc(Nc2ccc(OCCN3CCCC3)cc2)nc1Nc1cccc(S(=O)(=O)NC(C)(C)C)c1 [Fedratinib] + C[C@@H](Oc1cc(-c2cnn(C3CCNCC3)c2)cnc1N)c1c(Cl)ccc(F)c1Cl [Crizotinib] (partner 1 µM)
# Procedure, shortened: as §1
Cell Line,relative viability ([1]; first compound 0.1 µM),relative viability ([1]; first compound 0.3162 µM),relative viability ([1]; first compound 1 µM),relative viability ([2]; first compound 0.08 µM),relative viability ([2]; first compound 0.8 µM),relative viability ([2]; first compound 2.53 µM),relative viability ([2]; first compound 8 µM),relative viability ([3]; first compound 0.1 µM),relative viability ([3]; first compound 0.3162 µM),relative viability ([3]; first compound 1 µM),relative viability ([4]; first compound 0.1 µM),relative viability ([4]; first compound 0.3162 µM),relative viability ([4]; first compound 1 µM),relative viability ([5]; first compound 0.1 µM),relative viability ([5]; first compound 0.3162 µM),relative viability ([5]; first compound 1 µM),relative viability ([6]; first compound 0.1 µM),relative viability ([6]; first compound 0.3162 µM),relative viability ([6]; first compound 1 µM)
NCI-H1623,0.438,0.48,0.38,–,–,–,–,–,–,–,–,–,–,–,–,–,–,–,–
NCI-H1395,0.553,0.694,0.545,0.9,0.986,0.863,0.88,1.3,1.13,0.962,0.628,0.738,0.622,0.416,0.468,0.444,–,–,–
NCI-H1563,0.742,0.812,0.754,0.763,0.883,0.674,0.792,–,–,–,–,–,–,–,–,–,0.898,0.893,0.842
ABC-1,0.607,0.467,0.448,–,–,–,–,–,–,–,0.976,1.09,1.01,0.657,0.984,0.822,0.566,1.1,0.769
NCI-H522,0.629,0.825,0.566,1.11,0.97,0.967,0.994,–,–,–,0.634,0.698,0.668,0.655,0.643,0.615,–,–,–
SW 900,0.522,0.539,0.35,0.509,0.511,0.495,0.547,–,–,–,0.399,0.425,0.516,0.95,0.887,0.695,–,–,–
A549,–,–,–,–,–,–,–,1.55,1.2,1.1,0.121,0.302,0.257,0.391,0.269,0.354,0.638,0.609,0.687
NCI-H1703,–,–,–,–,–,–,–,0.482,0.955,0.498,–,–,–,–,0.359,0.291,0.629,0.51,0.533
LCLC-103H,0.415,0.454,0.404,0.452,0.416,0.447,0.5,–,–,–,0.725,0.734,0.703,0.819,0.753,0.773,1.07,0.922,1.01
Calu-6,–,–,–,–,–,–,–,0.828,0.795,0.727,–,–,–,0.618,0.588,0.55,0.753,0.701,0.677
NCI-H358,0.594,0.892,0.47,0.171,0.186,0.166,0.178,–,–,–,0.156,0.21,0.101,0.62,0.536,0.44,0.427,0.608,0.374
NCI-H1648,0.221,0.263,0.269,0.778,–,0.609,0.611,–,–,–,0.473,0.51,0.443,0.655,0.59,0.691,–,–,–
EBC-1,–,–,–,–,–,–,–,0.28,0.282,0.155,–,–,–,0.609,0.654,0.551,0.184,0.213,0.185
NCI-H1299,–,–,–,–,–,–,–,1.04,1.06,1.01,–,–,–,0.955,0.881,0.904,0.884,0.946,0.94
NCI-H2228,0.62,0.507,0.482,0.408,0.306,0.338,0.327,0.631,0.838,0.599,–,–,–,0.648,0.631,0.495,0.528,0.46,0.392
NCI-H2342,0.615,0.65,0.559,0.705,0.828,0.682,0.733,–,–,–,0.753,0.759,0.745,0.462,0.456,0.472,–,–,–
IA-LM,–,–,–,–,–,–,–,0.884,0.721,0.972,–,–,–,0.829,0.751,0.819,0.805,0.589,0.736
NCI-H727,0.504,0.674,0.534,–,–,–,–,0.381,0.346,0.213,0.864,0.792,0.874,0.732,0.787,0.741,0.791,0.688,0.661
NCI-H650,0.456,0.469,0.454,1.04,1.11,0.792,0.855,–,–,–,0.349,0.372,0.34,0.367,0.372,0.379,–,0.682,0.668
NCI-H661,0.729,0.735,0.55,1.04,0.901,0.957,0.782,–,–,–,0.566,0.54,0.423,0.713,0.77,0.748,0.964,0.948,1.04
NCI-H1793,0.237,0.271,0.234,0.982,1.08,0.649,0.844,0.295,0.456,0.476,0.501,0.526,0.406,0.998,0.941,0.775,–,–,–
CAL-12T,0.566,0.694,0.474,1.32,1.53,1.24,1.13,1,1.15,1.13,–,–,–,0.654,0.737,0.764,0.262,0.588,0.322
